Data reported in patent US5298502A, “Method and composition for photodynamic treatment and detection of tumors” (priority 1991, dated 1994).

Tests used:
SMT-F tumor = assay: Photodynamic treatment of SMT-F tumor in mice fed the agent (Example 10); type: in vivo, female DBA/2 mice
Description: In this Example preliminary routine dosage experiments, using agent 6c of Example 6, were made, using female DBA/2 mice, four to six weeks old (14-18 grams). For tumor implantation into these animals, SMT-F tumor was aseptically removed from donor animals and cut into 1 mm^3 fragments. These tumor pieces were placed in Hank's Balanced Salt Solution containing penicillin and streptomycin. Tumor pieces were implanted via a torchar into the center of the right flank of shaved mice. […] The skin covering and surrounding the tumor was shaved and depilated two to three hours prior to light treatment.
The light treatment employed red light centered on 630 nm obtained from 1000 watt Xenon arc lamp system (Oriel Corporation) using a condenser which focused the light into a trifurcated fiberoptic bundle. A collimating lens was placed at the end of each fiberoptic in order to focus the image of the fiberoptic bundle on the treatment area: a spot of […] (1.33 cm^2). The design of the fiberoptic bundle ensured uniform distribution of light over this area. The output spectrum of the arc lamp was tuned to a peak intensity of 630 nm (602-670 nm range) using a water filter, a heat reflecting filter, and a 610 nm long pass filter. Light was delivered at a power density of 135 mW/cm^2. The possibility of tissue hyperthermia induced by this power density was evaluated by placing thermocouples at selected depths into the tumor during treatment, and measuring any temperature rise. No increase in tumor temperature greater than 2.4° C. (final temperature of 37.5°C.) was observed. During the light treatment the mice were restrained without anesthesia in specially designed holders and the tumors and surrounding skin were exposed to light to different degrees, from 0 to 600 J/cm^2. […]
In the course of the experiment the porphyrin fluorescence at 650 nm of the tumors (on exposure to fluorescing-inducing light at 630 nm) was measured with a fluorescence photometer.

[1] = test system: DBA/2 Ha mice with SMT-F subcutaneous tumors; assay: Proto IX content of tissues of tumor-bearing mice fed the agent (Example 6); type: in vivo
Protocol: In this Example the enzyme-inhibiting agents were added to the feed of tumor-bearing mice; for some of the mice, used as a control, no agent was added to the feed. The mice were then sacrificed and their kidneys, intestines, adrenal glands, liver and tumor were removed and analyzed for their content of Proto IX. The following enzyme-inhibiting agents were employed: [drawing 10]
More particularly, the mice were DBA/2 Ha mice which had been injected with SMT-F subcutaneous tumors on Day 0 in the right shoulder. The mice, individually housed, received untreated Purina Rodent Chow 5001 Mash on Day 1; thereafter on Days 2 through 10 the mice received the same Mash treated with 2000 ppm of the inhibiting agent being tested (or, for the controls, the same untreated Mash). The treatment of the Mash was effected by blending it with a small amount of an acetone solution of the agent to be tested. The mice were then sacrificed on Day 10, except for the mouse treated with the agent designated as 6j; the latter was sacrificed on Day 7. The tissues were refrigerated at 4° C. overnight, then blotted dry, and the fresh weight of each tissue sample was recorded. The tissues were then homogenized in 5 mL, or lo mL in the cases of intestines and liver, of acetone-0.1 N NH4 OH (9:I, v/v). The homogenates were then centrifuged at 1500 g and the supernatants were analyzed on a SPEX FAII2 spectrofluorometer; excitation 400 nm, emission 630 nm wavelengths, the optima for Proto IX. Proto IX accumulation was determined as CPS (fluorescent counts per second emitted) per gram of tissue. The results are tabulated below (results are averages for two mice for each treatment, except for treatments with agents 6f, 6h, 6i and 6j in each of which only one mouse was treated): […]

HeLa cells = assay: Proto IX production in HeLa cells, extract of cells alone (Example 7); type: cell-based; settings: Homo sapiens, 100 uM agent, first formula (background-subtracted), read-out: increase in the amount of Proto IX relative to the control
Protocol: In a series of experiments along the lines of Examples 1 and 2, cultures of HeLa cells were incubated in the presence of 100 uM of various treating agents, listed below. The percentage given, next to each treating agent, indicates the increase in the amount of Proto IX produced in the presence of that treating agent relative to the amount produced by the control in the same experiment.
As in Examples 1 and 2, the data for this Example 7 were based on measurements of fluorescence (e.g. in counts per second, "cps"). In this Example, however, the measurements were made on an extract of the cells alone (in contrast to Examples 1 and 2 in which the disrupted cells and culture medium together were extracted), the fluorometric medium was the one described in Example 5 (containing 1% Tween-20, 50 mM Tris-HCl, 1 mM EDTA and 1 mM dithioerythritol, pH 8.5), and a cps measurement of the fluorometric medium per se was also made. In calculating the foregoing data for this Example, the following formula was used to calculate the percentage increases: [formula] where Ca is the counts per second for the sample resulting from treatment with the agent, Cc is the counts per second for the control sample, and Cm is the counts per second for the fluorometric medium per se (i.e. the background fluoroescence). On reviewing the data it was observed that Cc -Cm for this set of experiments was […] compared to Cm; for instance, individual measured values were 49025 and 52069 for Cc and 4295 for Cm. […] Accordingly, the data were recalculated using the formula: [formula] with the following results: 6a 336%; 5b 148%; 6c 154%; 6d 510%; 6e 320%; 6f 280%; 6g 329%; 6h 178%; 6i 171%; 6j 185%; 7a 118%; 7b 142%; 7c 103%; 7d 128%; 7e 173%; 7f 118%; 7q 155%; 7h 118%.

[2] = 2000 ppm in feed Days 2-10, sacrificed Day 10 (6j Day 7)

SMILES: Cc1nn(-c2cc(NS(C)(=O)=O)c(Cl)cc2Cl)c(=O)n1C(F)F [Agent 6c]
- mice with tumors cured (tumor free at 35 days post-treatment) (SMT-F tumor; 4000 ppm in feed for three days, 450 J/cm^2 of light): about 33%
- porphyrin fluorescence of the tumors at 650 nm (SMT-F tumor; agent in feed): All animals showed an increase in tumor fluorescence
- tumor regrowth between 35 and 91 days post-treatment (SMT-F tumor; mouse, in vivo): No tumor regrowth
- concentration of Proto IX in tissue, Adrenal ([1]; 2000 ppm in feed): 126 ug of Proto IX per gram of tis
- concentration of Proto IX in tissue, Intestine ([1]; 2000 ppm in feed): 91 ug of Proto IX per gram of tis
- concentration of Proto IX in tissue, Kidneys ([1]; 2000 ppm in feed): 148 ug of Proto IX per gram of tis
- concentration of Proto IX in tissue, Liver ([1]; 2000 ppm in feed): 25 ug of Proto IX per gram of tis
- concentration of Proto IX in tissue, Tumor ([1]; 2000 ppm in feed): 131 ug of Proto IX per gram of tis
- Proto IX Mean Cps per gram, Adrenal [1, 2]: 13790 Cps per gram × 10^3
- Proto IX Mean Cps per gram, Kidneys [1, 2]: 16186 Cps per gram × 10^3
- Proto IX Mean Cps per gram, Liver [1, 2]: 2739 Cps per gram × 10^3
- Proto IX Mean Cps per gram, Tumor [1, 2]: 14336 Cps per gram × 10^3
- Weight of Tumor as excised [1, 2]: 157 mg
- Proto IX Mean Cps per gram, Intestine ([1]; 2000 ppm in feed, samples diluted with 3 parts basic acetone to one part sample): 9937 Cps per gram × 10^3
- activation at 100 µM (HeLa cells): 297%
